Assays:
TBK1 = target: T1, TBK1 (Homo sapiens, UniProt Q9UHD2); test: TR-FRET enzymatic activity assay, TBK1; format: biochemical; also: full length recombinant TBK1 at 2.5 nM
T1 construct: TBK1 and IKKε were expressed and purified as full length recombinant proteins; made in house
T1 sequence (Q9UHD2 1-729): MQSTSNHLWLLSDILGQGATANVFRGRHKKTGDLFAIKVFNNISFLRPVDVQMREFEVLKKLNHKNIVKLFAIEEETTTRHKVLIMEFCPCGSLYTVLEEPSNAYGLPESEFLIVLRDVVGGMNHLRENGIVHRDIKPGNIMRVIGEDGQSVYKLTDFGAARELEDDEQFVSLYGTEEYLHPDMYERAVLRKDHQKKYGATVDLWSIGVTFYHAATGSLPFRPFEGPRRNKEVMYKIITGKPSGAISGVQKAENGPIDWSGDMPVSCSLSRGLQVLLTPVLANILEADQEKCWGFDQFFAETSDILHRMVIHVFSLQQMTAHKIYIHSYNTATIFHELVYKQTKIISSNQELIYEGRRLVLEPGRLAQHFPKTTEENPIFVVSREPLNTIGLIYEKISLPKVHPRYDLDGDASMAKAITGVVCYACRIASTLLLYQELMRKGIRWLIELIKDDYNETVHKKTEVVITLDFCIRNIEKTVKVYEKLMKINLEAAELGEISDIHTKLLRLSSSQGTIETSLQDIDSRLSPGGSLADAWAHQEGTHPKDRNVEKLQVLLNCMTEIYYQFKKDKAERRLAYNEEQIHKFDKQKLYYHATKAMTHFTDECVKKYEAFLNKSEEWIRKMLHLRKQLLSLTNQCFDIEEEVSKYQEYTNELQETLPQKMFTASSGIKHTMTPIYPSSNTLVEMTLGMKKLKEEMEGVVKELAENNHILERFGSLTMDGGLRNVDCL
Method in brief: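 TR-FRET detected phosphorylation of a biotinylated serine/threonine peptide using 125 nM streptavidin XL665 plus europium-labelled anti-phospho antibody. Reactions with full-length recombinant kinase ran 240 min at 25 °C before EDTA quench. Values are geometric-mean IC50s (n ≥ 4) from four-parameter dose-response fits against staurosporine and DMSO controls.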

IKKε = target: T2, IKKε (Homo sapiens, UniProt Q14164); test: TR-FRET enzymatic activity assay, IKKε; format: biochemical; details: read-out: IKKϵ IC50; also: full length recombinant IKKε at 0.3 nM
T2 construct: TBK1 and IKKε were expressed and purified as full length recombinant proteins; made in house
T2 sequence (Q14164 1-716): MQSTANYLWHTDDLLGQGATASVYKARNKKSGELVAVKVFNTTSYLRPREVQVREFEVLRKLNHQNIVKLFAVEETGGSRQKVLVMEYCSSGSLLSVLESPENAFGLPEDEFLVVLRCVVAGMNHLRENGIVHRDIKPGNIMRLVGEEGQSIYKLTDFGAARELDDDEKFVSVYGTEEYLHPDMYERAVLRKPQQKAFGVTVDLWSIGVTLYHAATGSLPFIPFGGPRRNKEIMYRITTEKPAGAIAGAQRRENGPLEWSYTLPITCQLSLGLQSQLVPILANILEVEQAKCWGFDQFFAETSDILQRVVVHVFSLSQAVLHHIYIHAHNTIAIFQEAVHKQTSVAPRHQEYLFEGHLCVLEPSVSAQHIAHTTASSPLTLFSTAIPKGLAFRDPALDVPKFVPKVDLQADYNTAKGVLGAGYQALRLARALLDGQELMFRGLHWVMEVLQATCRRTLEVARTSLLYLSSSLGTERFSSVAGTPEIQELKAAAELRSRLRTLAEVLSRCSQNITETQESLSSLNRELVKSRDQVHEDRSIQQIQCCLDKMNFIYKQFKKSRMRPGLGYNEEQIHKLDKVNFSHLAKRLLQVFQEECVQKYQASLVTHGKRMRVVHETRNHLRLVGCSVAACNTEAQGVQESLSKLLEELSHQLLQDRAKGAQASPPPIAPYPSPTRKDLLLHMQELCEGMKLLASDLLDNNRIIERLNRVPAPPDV
Method in brief: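 IC50 values are geometric means of at least four determinations, fitted to a four-parameter curve after normalising to 1 μM staurosporine and DMSO. Signal: Eu-cryptate anti-phospho antibody plus 125 nM streptavidin-XL665 on a biotinylated peptide. Full-length recombinant enzyme reacted 240 min, 25 °C, then EDTA-quenched.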

Row | SMILES | IC50 (TBK1) | IC50 (IKKε)
1 | Cn1cc([C@@H]2C[C@H]2C(=O)Nc2cc(-c3ccc(O[C@H]4CCN(C(=O)CO)C[C@H]4F)c(C#N)c3)ccn2)cn1 (single isomer, unassigned) [Example 125] | 18.9 nM | 31.4 nM
2 | Cc1n[nH]c(C(=O)N2CC[C@H](Oc3ccc(-c4cc(NC(=O)C5CC5)ncn4)cc3C#N)C(F)(F)C2)n1 [Example 34, (S)—N-(6-(3-cyano-4-((3,3-difluoro-1-(3-methyl-1H-1,2,4-triazole-5-carbonyl)piperidin-4-yl)oxy)phenyl)pyrimidin-4-yl)cyclopropanecarboxamide] | 4.2 nM | 4.6 nM
3 | N#Cc1cc(-c2cc(NC(=O)C3CC3)ncn2)ccc1O[C@H]1CCN(C(=O)[C@@H]2CCC(=O)N2)CC1(F)F [Example 152, N-(6-(3-cyano-4-(((S)-3,3-difluoro-1-((S)-5-oxopyrrolidine-2-carbonyl)piperidin-4-yl)oxy)phenyl)pyrimidin-4-yl)cyclopropanecarboxamide] | 9.4 nM | 53.3 nM
4 | N#Cc1cc(-c2cc(NC(=O)[C@@H]3C[C@H]3c3cccnc3)ncn2)ccc1O[C@H]1CCN(C(=O)[C@@H](O)CO)CC1(F)F [Example 144, (1,2-Trans)-N-(6-(3-cyano-4-(((S)-1-((S)-2,3-dihydroxypropanoyl)-3,3-difluoropiperidin-4-yl)oxy)phenyl)pyrimidin-4-yl)-2-(pyridin-3-yl)cyclopropane-1-carboxamide] | 7.1 nM | 9 nM
5 | N#Cc1cc(-c2ccnc(NC(=O)[C@@H]3C[C@@H]3C(N)=O)c2)ccc1O[C@H]1CCN(C(=O)CO)C[C@H]1F (stereo in doubt) [Example 82, (1,2-cis)-N1-(4-(3-cyano-4-(((3R,4S)-3-fluoro-1-(2-hydroxyacetyl)piperidin-4-yl)oxy)phenyl)pyridin-2-yl)cyclopropane-1,2-dicarboxamide] | 607 nM | 857 nM
6 | Cn1ccnc1[C@@H]1C[C@H]1C(=O)Nc1cc(-c2ccc(O[C@H]3CCN(C(=O)CO)CC3(F)F)c(C#N)c2)ncn1 [Example 114, (1R,2R)—N-(6-(3-cyano-4-(((S)-3,3-difluoro-1-(2-hydroxyacetyl)piperidin-4-yl)oxy)phenyl)pyrimidin-4-yl)-2-(1-methyl-1H-imidazol-2-yl)cyclopropane-1-carboxamide] | 181 nM | 36 nM
7 | N#Cc1cc(-c2ccnc(NC(=O)C3CC3C(F)(F)F)c2)ccc1O[C@H]1CCN(C(=O)CO)C[C@H]1F (stereo partly drawn) [Example 66, N-(4-(3-Cyano-4-(((3R,4S)-3-fluoro-1-(2-hydroxyacetyl)piperidin-4-yl)oxy)phenyl)pyridin-2-yl)-2-(trifluoromethyl)cyclopropane-1-carboxamide] | 28.3 nM | 108 nM

Results, then the compound that gave them:

Row | IC50 (TBK1) | IC50 (IKKε) | SMILES
8 | 268 nM | 512 nM | N#Cc1cc(-c2ccnc(NC(=O)C3CC34CC4)c2)ccc1OC1CCOCC1 (stereo not drawn) [Example 48, N-(4-(3-cyano-4-((tetrahydro-2H-pyran-4-yl)oxy)phenyl)pyridin-2-yl)spiro[2.2]pentane-1-carboxamide]
9 | > 1000 nM | > 1000 nM | CC(=O)OC1(C(=O)Nc2cc(-c3ccc(OC4CCOCC4)c(C#N)c3)ccn2)CC1 [Example 37, 1-((4-(3-cyano-4-((tetrahydro-2H-pyran-4-yl)oxy)phenyl)pyridin-2-yl)carbamoyl)cyclopropyl acetate]
10 | 444 nM | 427 nM | N#Cc1cc(-c2ccnc(NC(=O)[C@@H]3C[C@H]3C(=O)N3CC(O)C3)c2)ccc1OC1CCOCC1 (relative stereo) [Example 45, (1,2-trans)-N-(4-(3-cyano-4-((tetrahydro-2H-pyran-4-yl)oxy)phenyl)pyridin-2-yl)-2-(3-hydroxyazetidine-1-carbonyl)cyclopropane-1-carboxamide]
11 | 4.2 nM | 7.4 nM | N#Cc1cc(-c2ccnc(NC(=O)C3CC3)c2)ccc1O[C@H]1CCN(C(=O)CO)CC1(F)F [Example 10, (S)—N-(4-(3-cyano-4-((3,3-difluoro-1-(2-hydroxyacetyl)piperidin-4-yl)oxy)phenyl)pyridin-2-yl)cyclopropanecarboxamide]
12 | > 1000 nM | > 1000 nM | N#Cc1cc(-c2ccnc(NC(=O)C3(CF)CC3)c2)ccc1OC1CCOCC1 [Example 49, N-(4-(3-cyano-4-((tetrahydro-2H-pyran-4-yl)oxy)phenyl)pyridin-2-yl)-1-(fluoromethyl)cyclopropane-1-carboxamide]
